Experimental data reported in patent US12077503B2, “Substituted cyclic amides and their use as herbicides” (FMC CORPORATION, priority 2015, dated 2024).

Tests used:
Format in all cases: in vivo
[1] = test system: giant foxtail (Setaria faberii); experiment: Test A preemergence; conditions: Setaria faberi, pre-emergence, 240 h, 0 to 100 scale where 0 is no effect and 100 is complete control, read-out: Foxtail, Giant plant response rating
Procedure, shortened: (§1)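 Visual injury scores from 0, no effect, to 100, complete control, were assigned versus untreated controls roughly 10 d after treatment in the greenhouse. Test chemicals, formulated with surfactant in a non-phytotoxic solvent, were applied to planted seeds as a preemergence soil spray or postemergence to one- to two-leaf plants 2 to 10 cm tall, in loam–sand soil.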

[2] = test system: ragweed (common ragweed, Ambrosia elatior); experiment: Test A preemergence; conditions: Ambrosia artemisiifolia, pre-emergence, 240 h, 0 to 100 scale where 0 is no effect and 100 is complete control, read-out: Ragweed plant response rating
Procedure, shortened: as §1

[3] = test system: ryegrass, Italian (Italian ryegrass, Lolium multiflorum); experiment: Test A preemergence; conditions: Lolium multiflorum, pre-emergence, 240 h, 0 to 100 scale where 0 is no effect and 100 is complete control, read-out: Ryegrass, Italian plant response rating
Procedure, shortened: as §1

Kochia (Kochia scoparia) [4] = experiment: Test A preemergence; conditions: Bassia scoparia, pre-emergence, 240 h, 0 to 100 scale where 0 is no effect and 100 is complete control, read-out: Kochia plant response rating
Procedure, shortened: as §1

[5] = test system: pigweed (Amaranthus retroflexus); experiment: Test A preemergence; conditions: Amaranthus retroflexus, pre-emergence, 240 h, 0 to 100 scale where 0 is no effect and 100 is complete control, read-out: Pigweed plant response rating
[6] = test system: barnyardgrass (Echinochloa crus-galli); experiment: Test A preemergence; conditions: Echinochloa crus-galli, pre-emergence, 240 h, 0 to 100 scale where 0 is no effect and 100 is complete control, read-out: Barnyardgrass plant response rating
Procedure, shortened: as §1

[7] = test system: sedge, umbrella (small-flower umbrella sedge, Cyperus difformis); experiment: Test B flooded paddy test; conditions: Cyperus difformis, 250 g ai/ha, Flood; 0 to 100 scale where 0 is no effect and 100 is complete control; read-out: Sedge, Umbrella plant response rating
Procedure, shortened: (§2)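 Visual ratings (0 none to 100 complete control) are relative to untreated plants, taken 13–15 d after treatment in a greenhouse. Test material went straight into floodwater standing 3 cm above the soil, kept constant, on plants at the 2-leaf stage.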

[8] = test system: barnyardgrass (Echinochloa crus-galli); experiment: Test B flooded paddy test; conditions: Echinochloa crus-galli, 250 g ai/ha, Flood; 0 to 100 scale where 0 is no effect and 100 is complete control; read-out: Barnyardgrass plant response rating
Procedure, shortened: as §2

[9] = test system: ducksalad (Heteranthera limosa); experiment: Test B flooded paddy test; conditions: Heteranthera limosa, 250 g ai/ha, Flood; 0 to 100 scale where 0 is no effect and 100 is complete control; read-out: Ducksalad plant response rating
Procedure, shortened: as §2

rice (Oryra sativa) = experiment: Test B flooded paddy test; conditions: Oryza sativa, 250 g ai/ha, Flood; 0 to 100 scale where 0 is no effect and 100 is complete control; read-out: Rice plant response rating
Procedure, shortened: as §2

[10] = test system: giant foxtail (Setaria faberii); experiment: Test A postemergence; conditions: Setaria faberi, post-emergence, 240 h, Postemergence, read-out: Foxtail, Giant plant response rating (0 to 100 scale)
Procedure, shortened: as §1

[11] = test system: ragweed (common ragweed, Ambrosia elatior); experiment: Test A postemergence; conditions: Ambrosia artemisiifolia, post-emergence, 240 h, Postemergence, read-out: Ragweed plant response rating (0 to 100 scale)
Procedure, shortened: as §1

[12] = test system: wheat (Triticum aestivum); experiment: Test A postemergence; conditions: Triticum aestivum, post-emergence, 240 h, Postemergence, read-out: Wheat plant response rating (0 to 100 scale)
Procedure, shortened: as §1

[13] = test system: ryegrass, Italian (Italian ryegrass, Lolium multiflorum); experiment: Test A postemergence; conditions: Lolium multiflorum, post-emergence, 240 h, Postemergence, read-out: Ryegrass, Italian plant response rating (0 to 100 scale)
Procedure, shortened: as §1

[14] = test system: Galium (catchweed bedstraw, Galium aparine); experiment: Test A postemergence; conditions: Galium, post-emergence, 240 h, Postemergence, read-out: Galium plant response rating (0 to 100 scale)
Procedure, shortened: as §1

Kochia (Kochia scoparia) [15] = experiment: Test A postemergence; conditions: Bassia scoparia, post-emergence, 240 h, Postemergence, read-out: Kochia plant response rating (0 to 100 scale)
Procedure, shortened: as §1

[16] = test system: blackgrass (Alopecurus myosuroides); experiment: Test A postemergence; conditions: Alopecurus myosuroides, post-emergence, 240 h, Postemergence, read-out: Blackgrass plant response rating (0 to 100 scale)
Procedure, shortened: as §1

[17] = test system: pigweed (Amaranthus retroflexus); experiment: Test A postemergence; conditions: Amaranthus retroflexus, post-emergence, 240 h, Postemergence, read-out: Pigweed plant response rating (0 to 100 scale)
Procedure, shortened: as §1

[18] = test system: barnyardgrass (Echinochloa crus-galli); experiment: Test A postemergence; conditions: Echinochloa crus-galli, post-emergence, 240 h, Postemergence
Procedure, shortened: as §1

corn (Zea mays) = experiment: Test A postemergence; conditions: Zea mays, post-emergence, 240 h, Postemergence, read-out: Corn plant response rating (0 to 100 scale)
Procedure, shortened: as §1

[19] = 125 g ai/ha, preemergence, visual injury rating, approximately 10 d
[20] = 125 g ai/ha, visual rating about 10 d after treatment
[21] = 31 g ai/ha, 0 is no effect, 100 is complete control

Which results are given for O=C(Nc1ccc(F)c(F)c1F)[C@H]1C(=O)N(CC(F)F)C[C@@H]1c1cccc(C(F)(F)F)c1 [Compound 1297]?
pest or weed control at 31 g/ha ([1]; 31 g ai/ha, Preemergence): 0%; pest or weed control at 125 g/ha [1, 19]: 80%; pest or weed control at 31 g/ha ([2]; 31 g ai/ha, Preemergence): 0%; pest or weed control at 125 g/ha [2, 19]: 0%; pest or weed control at 31 g/ha ([3]; 31 g ai/ha, Preemergence): 0%; pest or weed control at 125 g/ha [3, 19]: 0%; pest or weed control at 31 g/ha (Kochia (Kochia scoparia) [4]; 31 g ai/ha, Preemergence): 0%; pest or weed control at 125 g/ha (Kochia (Kochia scoparia) [4]; [19]): 0%; pest or weed control at 31 g/ha ([5]; 31 g ai/ha, Preemergence): 0%; pest or weed control at 125 g/ha [5, 19]: 0%; pest or weed control at 31 g/ha ([6]; 31 g ai/ha, Preemergence): 20%; pest or weed control at 125 g/ha [6, 19]: 20%; pest or weed control at 250 g/ha [7]: 0%; pest or weed control at 250 g/ha [8]: 0%; pest or weed control at 250 g/ha [9]: 0%; pest or weed control at 250 g/ha (rice (Oryra sativa)): 30%; pest or weed control at 125 g/ha [10, 20]: 20%; pest or weed control at 31 g/ha [10, 21]: 0%; pest or weed control at 125 g/ha [11, 20]: 0%; pest or weed control at 31 g/ha [11, 21]: 0%; plant injury at 125 g/ha [12, 20]: 0%; plant injury at 31 g/ha [12, 21]: 0%; pest or weed control at 125 g/ha [13, 20]: 0%; pest or weed control at 31 g/ha [13, 21]: 0%; pest or weed control at 125 g/ha [14, 20]: 0%; pest or weed control at 31 g/ha [14, 21]: 0%; pest or weed control at 125 g/ha (Kochia (Kochia scoparia) [15]; [20]): 0%; pest or weed control at 31 g/ha (Kochia (Kochia scoparia) [15]; [21]): 0%; pest or weed control at 125 g/ha [16, 20]: 0%; pest or weed control at 31 g/ha [16, 21]: 0%; pest or weed control at 125 g/ha [17, 20]: 0%; pest or weed control at 31 g/ha [17, 21]: 0%; pest or weed control at 125 g/ha ([18]; 125 g ai/ha, visual rating about 10 d after treatment, read-out: Barnyardgrass plant response rating (0 to 100 scale, 0 no effect, 100 complete control)): 20%; pest or weed control at 31 g/ha ([18]; 31 g ai/ha, 0 is no effect, 100 is complete control, read-out: Barnyardgrass plant response rating (0 to 100 scale)): 0%; plant injury at 125 g/ha (corn (Zea mays); [20]): 0%; plant injury at 31 g/ha (corn (Zea mays); [21]): 0%
